Consider eleven compounds from patent US10117890B2, “Methods and compositions for treating pain” (Academia Sinica, priority 2012, dated 2018).

Assay [1] deals with muscle nociceptors (ASIC3-positive muscle afferent DRG neurons expressing ISP-O). Description: Whole-cell patch-clamp recording of outward currents in muscle afferent DRG neurons. Particulars: for induction of outward current in ASIC3/SP-expressing muscle DRG neurons: SP-sensitive muscle nociceptors; for inhibition of T1-11-induced outward current (IT1-11) by adenosine receptor antagonists: muscle nociceptors. In kind it is cell-based, mice. Here is the method: The digested DRG neurons were washed with fetal calf serum (FCS)-free DMEM or DMEM containing 10% FCS during each treatment. Fully digested DRGs were triturated and plated on poly-L-lysine-coated cover slides. Cell cultures were maintained in a 5% CO2 incubator at 37° C.
Whole-cell patch-clamp recordings of muscle-afferent neurons involved use of Axopatch MultiClamp 700B (Axon Instruments). Neurons with membrane potential >−40 mV were discarded. The bridge was balanced in current-clamp recording, and the series resistance was compensated 70% in voltage-clamp recording with […] 700B compensation circuitry. All experiments were performed at room temperature (21-25° C.) and completed within 30 hr post-seeding. Unless specifically mentioned, the patch pipettes were prepared in 1-5 MΩ and filled with internal solution containing (in mM) 100 KCl, 2 Nae-ATP, 0.3 Na3-GTP, 10 EGTA, 5 MgCl2, and 40 HEPES, adjusted to pH 7.4 with KOH. Recording cells were superfused in artificial cerebrospinal fluid (ACSF) by control with gravitational force. The ACSF contained (in mM) 130 NaCl, 5 KCl, 1 MgCl2, 2 CaCl2, 10 glucose, and 20 HEPES, adjusted to pH 7.4 with NaOH. Osmolarity was adjusted to 300 mOsm. The acidic ACSF was titrated to pH 6.8 by […]. […] If not specifically mentioned, drugs listed above were from Sigma Chemical (St. Louis, Mo.).
The procedure was repeated at least 2 times to ensure consistent data. […] ACSF-containing compounds were superfused for 1 min to ensure complete replacement of previous perfusate between treatments. […] A recording pipette containing 1 mM GDP-β-S was used in GTP dialysis. The GABA-B current was induced by 100 μM Baclofen at the beginning of dialysis (0, 1 and 2 min after whole-cell patch clamp). Then, Baclofen was used to re-stimulate the dialyzed neurons after 10-min dialysis (10, 11 and 12 min after whole-cell patch clamp).

Another assay relates to ASIC3. In words: Whole-cell patch clamp of acid-induced current in CHO cells transfected with ASIC3. It is filed as cell-based.
The subject of assay [2] is acid(ASIC3)-induced chronic muscle pain. Description: Acid-induced chronic muscle pain model (repeated intramuscular acid injection, von Frey test). In kind it is in vivo, mice. Particulars: for acid-induced hyperalgesia, co-injection with acidic saline: 1 nmole, i.m. From the text:
Adult (8- to 12-wk-old) C57/BL6 mice were used. All procedures followed the Guide for the Use of Laboratory Animals (National Academy Press, Washington D.C., USA) and were approved by the Institutional Animal Care and Use Committee of Academia Sinica. We aimed to minimize the number of animals used and their suffering without compromising the quality of the experiments. The generation and genotyping of Tac1^−/− mice and Asic3^−/− mice were as described. Both null mutant mice were backcrossed to C57/BL6 for 10 generations to establish a congenic strain. Congenic Tac1^−/− Asic3^−/− mice were offspring of Tacl^+/− and Asic3^+/− intercrosses.
Mice received an intramuscular acid injection in the gastrocnemius muscle (GM) containing 20 μl acid saline (pH 4.0) with or without (Sar^9, Met(O2)^11)-substance P (SP; 4, 10, or 40 μM) or 100 μM RP67580 or 200 μM XE991. Mechanical hyperalgesia was assessed by applying a 0.2-mN von Frey filament to the plantar surface of both hind paws of mice. Mice were acclimatized in an acrylic cubicle for 60 min before testing. A positive response was defined as the foot lifting when the von Frey filament was applied. For each paw, the filament was applied 5 times at 30-sec intervals. Responses of the paw to mechanical stimuli were measured before injection and at 4 and 24 hr and 5 days after the first acid injection (day 0) and at 4, 24, and 72 hr and 1 week after the second acid injection (day 5). For single-injection experiments, responses to mechanical stimuli were measured before the injection, at 4 hr and at 1, 3, 5, 7, 9, 11, 13, 15 and 22 days after the injection or at 4, 24, 48 hr and 7 and 14 days after the injection. NK1-selective agonist ((Sar^9, Met(O2)^11)—SP) was from Sigma Chemical (St. Louis, Mo.). NK1-selective antagonist (RP67580) and XE991 were from Tocris (Avonmouth, UK). The experimenters were blinded to the experimental manipulations. The person who conducted von Frey test had no information of the mouse genotypes or drug injections.

The subject of the next assay is ICS-induced pain. Description: Intermittent cold stress (ICS) mouse model of fibromyalgia, von Frey test. It is filed as in vivo, mice. Particulars: SM-substance P 0.6 mg/kg alone. Here is the method: Mechanical hyperalgesia was assessed by applying a 0.2 mN von Frey filament to the plantar surface of both hind paws. For each paw, the filament was applied for 5 times at 30-s intervals.
To induce fibromyalgia-like symptoms, mice were treated with intermittent cold stress, which produces long-lasting (more than 2 weeks) thermal hyperalgesia and mechanical allodynia, predominantly in females. Method: Mice were placed on stainless mesh plate in a cold room at 4° C. overnight (from 4:30 pm to 10:00 am), followed by intermittent cold stress with environment temperatures alternating between 24 and 4° C. every 30 min, from 10:00 am to 4:30 pm. These procedures were repeated twice. On day 3, the mice were adapted to 24 C for 1 h before behavioral testing.
The second fibromyalgia model is developed by Ueda's group, in which mice were treated with intermittent cold stress for 2 days (Nishiyori & Ueda, 2008). Mice treated with intermittent cold stress will develop long-lasting (>2 weeks) mechanical and thermal hyperalgesia. Analgesic effect of T1-11 was tested in these mice 5 day after intermittent cold stress (ICS). […] Moreover, we found T1-11 and substance P have synergistic effect in treating the ICS-induced pain.

“Also recorded” adds a separate entry of the source.

On to `OC[C@H]1O[C@@H](n2cnc3c(NCc4cccc(O)c4)ncnc32)C(O)C1O` (some centres unmarked) [JMF1998], for which, in assay [1], the “induction of outward current in ASIC3/SP-expressing muscle DRG neurons” value (“induction of outward current” below) is given as “can also induce outward currents”. For `O=C(O)c1ccccc1O` [salicylic acid, reference compound], in the assay with ASIC3, the “acid-induced current in CHO cells transfected with ASIC3” value is “blocked”. For the compound `O=C(Cc1ccccc1)Nc1nc2ccc(Cl)cc2c2nc(-c3ccco3)nn12` [MRS1220, reference compound], the “effect of antagonist on the analgesic effect of T1-11” value in assay [2] (MRS1220 200 pmole i.m.) was “abolished the analgesic effect of T1-11”. The “inhibition of T1-11-induced outward current (IT1-11) by adenosine receptor antagonists” value in assay [1] is on record as “reversely inhibited”. As to `CNC(=O)[C@H]1O[C@@H](n2cnc3c(NCc4cccc(I)c4)ncnc32)[C@H](O)[C@@H]1O` [IB-MECA], the “acid-induced hyperalgesia, co-injection with acidic saline” value in assay [2] is reported as “has no effect on acid-induced hyperalgesia; also recorded: did not have analgesic effect”. On to `COc1ccccc1CC(=N)N1C[C@@H]2C(=O)CCC(c3ccccc3)(c3ccccc3)[C@@H]2C1` [RP67580, reference compound], for which the “inhibition of IT1-11 by NK1 receptor antagonist” value in assay [1] (RP67580 (10 n=17)) is recorded as “inhibited IT1-11”. APETx2: the “acid-induced hyperalgesia, co-injection of acid and APETx2” value in assay [2] (APETx2 2 pmole at the first acid injection) is “abolished the transient hyperalgesia and prevented the development of chronic hyperalgesia”. In the case of `OC[C@H]1O[C@@H](n2cnc3c(NCc4ccc(Br)cc4)ncnc32)C(O)C1O` (some centres unmarked) [JMF2665], in assay [1], the “induction of outward current” value is “can also induce outward currents”.

Regarding `CCCn1cc2c(nc(NC(=O)Nc3ccc(OC)cc3)n3nc(-c4ccco4)nc23)n1` [MRE3008F20, reference compound], the “inhibition of T1-11-induced outward current (IT1-11) by adenosine receptor antagonists” value in assay [1] was “reversely inhibited”. As to `CCNC(=O)[C@H]1O[C@@H](n2cnc3c(N)nc(NCCc4ccc(CCC(=O)O)cc4)nc32)C(O)C1O` (stereo in doubt) [CGS21680, reference compound], the “acid-induced hyperalgesia, co-injection with acidic saline” value in assay [2] is recorded as “partially inhibited acid-induced hyperalgesia; also recorded: showed partial analgesic effect”. Moreover, the “outward current in A2A−/− muscle afferent DRG neurons” value in assay [1] (CGS21680 high dose 10 μM) was “induces an outward current”. The “induction of outward current” value in assay [1] is on record as “can also induce outward currents”. Turning to `OC[C@H]1O[C@@H](n2cnc3c(NCCc4c[nH]c5ccccc45)ncnc32)C(O)C1O` (stereo in doubt) [JMF1907], in assay [1], the “induction of outward current” value is recorded as “can also induce outward currents”. Regarding “(Sar^9, Met(O2)^11)-substance P [SM-substance P, reference compound]”, the “analgesic effect on ICS-treated mice, SM-substance P alone” value with ICS-induced pain is “did not show analgesic effect”.
